In patent US9078442B2, “Herbicidally and fungicidally active 3-phenylisoxazoline-5-carboxamides and 3-phenylisoxazoline-5-thioamides” (BAYER INTELLECTUAL PROPERTY GMBH, priority 2011, dated 2015):

Tests used:
Peronospora parasitica = experiment: In vivo test Peronospora parasitica (downy mildew on cabbage), protective; conditions: evaluation 5 days after infection
Experimental: In vivo test Peronospora parasitica (downy mildew on cabbage) To prepare an appropriate active compound formulation, the active compound is mixed with acetone/Tween/DMSO and the mixture is diluted with water to the desired concentration. Cabbage plants are cultivated in 50/50 peat/pozzolan soil in small pots at 18-20° C. and sprayed at the cotyledon stage at the respective stated application rates to test for protective activity. Control plants were treated in the same manner, but using an aqueous solution without any active compounds. 24 hours after the spraying, the plants were sprayed with a spore suspension of Peronospora parasitica (50 000 spores/ml). The plants were placed in a cabin at 20° C. in a humid atmosphere for 5 days.

Botrytis cinerea = experiment: In vivo test Botrytis cinerea (gray mold on cucumbers); conditions: Botrytis cinerea on cucumber, evaluation 5-7 days after infection
Experimental: Cucumber plants (Vert petit de Paris) are cultivated in 50/50 peat pozzolan substrate at 20-25° C. and sprayed at the Z16 stage with the active compound preparation given in Example 1. After 24 hours, the upper sides of the leaves of the plants are sprayed with a spore suspension of Botrytis cinerea (150 000 spores/ml). The spores of a 15-day old culture are collected and suspended in a nutrient solution consisting of • 20 g/l of gelatin; • 50 g/l of D-fructose; • 2 g/l of NH4NO3; • 1 g/L of KH2PO4. The inoculated cucumber plants are placed at 15-11° C. (day/night) and at 80% relative atmospheric humidity for 5-7 days.

Alternaria brassicae = experiment: In vivo test Alternaria brassicae (salad radish); set-up: concentration or dose not given beside the values; conditions: Alternaria brassicae on salad radish, application rate not given, evaluation 6-7 days after inoculation
Experimental: Salad radish (cultivar Pernot) are cultivated in 50/50 peat pozzolan substrate at 18-20° C. and sprayed at the cotyledon stage with the active compound preparation given above. After 24 hours, the plants are sprayed with a spore suspension of Alternaria brassicae (40 000 spores/cm3). The inoculated plants are placed at 18° C. and in a humid atmosphere for 6-7 days. […] At an application rate of g/ha, the following efficacies are found for the following compounds.

Sphaerotheca fuliginea = experiment: In vivo test Sphaerotheca fuliginea (cucumber); conditions: Sphaerotheca fuliginea on cucumber, evaluation 12 days after inoculation
Experimental: Cucumber plants (cultivar: Vert petit de Paris) are cultivated in 50/50 peat pozzolan substrate at 20/23° C. and sprayed at the cotyledon stage with the active compound preparation given in Example A. After 24 hours, the plants are sprayed with a spore suspension of Sphaerotheca fuliginea (100 000 spores/ml).

[1] = tested on: Mycosphaerella graminicola; experiment: In vivo test Mycosphaerella graminicola (wheat); conditions: Mycosphaerella graminicola on wheat, evaluation 21-28 days after inoculation
Experimental: Wheat plants (cultivar: (Scipion) are cultivated in 50/50 peat pozzolan substrate at 12° C. and sprayed at the 1-leaf stage with the active compound preparation as given in Example A. After 24 hours, the plants are sprayed with a spore suspension of Mycosphaerella graminicola (500 000 spores/ml).

Phytophthora infestans = format: in vivo; conditions: Phytophthora infestans on tomato, application rate 1200 g/ha, evaluation 5 days after infection
Leptosphaeria nodorum = experiment: In vivo test Leptosphaeria nodorum (wheat); conditions: Leptosphaeria nodorum on wheat, application rate 1200 g/ha, evaluation 15-17 days after inoculation
Experimental: Wheat plants (cultivar: (Scipion) are cultivated in 50/50 peat pozzolan substrate at 12° C. and sprayed at the 1-leaf stage with the active compound preparation as given in Example A. After 24 hours, the plants are sprayed with a spore suspension of Leptosphaeria nodorum (250 000 spores/ml).

In the case of CCC(C)NC(=O)C1(C)CC(c2cc(Cl)cc(Cl)c2)=NO1 (mixture of isomers) [Example 6.217], the “Activity [%] (efficacy)” value (Peronospora parasitica; application rate 1200 g/ha) was 100%, the “Activity [%] (efficacy)” value (Botrytis cinerea; application rate 1200 g/ha) was 100% and the “Activity [%] (efficacy)” value (Alternaria brassicae) was 81%.

In the case of Cc1c(NC(=O)C2(C)CC(c3cc(F)cc(F)c3)=NO2)cnn1C (centres unmarked) [Example 1.007], the “Activity [%] (efficacy)” value (Sphaerotheca fuliginea; application rate 500 g/ha) was 75% and the “Activity [%] (efficacy)” value ([1]; application rate 500 g/ha) was 73%.

For Cc1cc(CNC(=O)C2(C)CC(c3cc(Cl)cc(Cl)c3)=NO2)n(C)n1 (centres unmarked) [Example 1.122], the “Activity [%] (efficacy)” value (Peronospora parasitica; application rate 500 g/ha) was 100%, the “Activity [%] (efficacy)” value (Sphaerotheca fuliginea; application rate 500 g/ha) was 72% and the “Activity [%] (efficacy)” value ([1]; application rate 500 g/ha) was 75%.

In the case of CCn1cc(CNC(=O)C2(C)CC(c3cc(C)cc(C)c3)=NO2)c(C)n1 (centres unmarked) [Example 1.194], the “Activity [%] (efficacy)” value (Peronospora parasitica; application rate 1200 g/ha) was 100%, the “Activity [%] (efficacy)” value (Phytophthora infestans) was 100% and the “Activity [%] (efficacy)” value (Botrytis cinerea; application rate 1200 g/ha) was 95%. The “Activity [%] (efficacy)” value ([1]; application rate 1200 g/ha) was 88%.

CCn1cc(CNC(=O)C2(C)CC(c3cccc(Cl)c3)=NO2)c(C)n1 (centres unmarked) [Example 1.195] was tested, and the “Activity [%] (efficacy)” value (Peronospora parasitica; application rate 1200 g/ha) was 100%, the “Activity [%] (efficacy)” value (Phytophthora infestans) was 100% and the “Activity [%] (efficacy)” value ([1]; application rate 500 g/ha) was 79%.

In the case of CCn1cc(CNC(=O)C2(C)CC(c3cc(F)cc(Cl)c3)=NO2)c(C)n1 (centres unmarked) [Example 1.197], the “Activity [%] (efficacy)” value (Peronospora parasitica; application rate 1200 g/ha) was 100%, the “Activity [%] (efficacy)” value (Phytophthora infestans) was 100% and the “Activity [%] (efficacy)” value (Sphaerotheca fuliginea; application rate 1200 g/ha) was 100%.

CCn1cc(CNC(=O)C2(C)CC(c3cc(Cl)cc(Cl)c3)=NO2)c(C)n1 (centres unmarked) [Example 1.222] was tested, and the “Activity [%] (efficacy)” value (Peronospora parasitica; application rate 500 g/ha) was 100%, the “Activity [%] (efficacy)” value (Phytophthora infestans) was 100% and the “Activity [%] (efficacy)” value ([1]; application rate 1200 g/ha) was 96%.

With Cn1cc(CNC(=O)C2(C)CC(c3cc(Cl)cc(Cl)c3)=NO2)cn1 (centres unmarked) [Example 1.285] the “Activity [%] (efficacy)” value (Peronospora parasitica; application rate 500 g/ha) was 100%, the “Activity [%] (efficacy)” value (Sphaerotheca fuliginea; application rate 500 g/ha) was 89% and the “Activity [%] (efficacy)” value ([1]; application rate 500 g/ha) was 75%.

For CCCn1cc(CNC(=O)C2(C)CC(c3cc(Cl)cc(Cl)c3)=NO2)c(C)n1 (centres unmarked) [Example 1.374], the “Activity [%] (efficacy)” value (Peronospora parasitica; application rate 1200 g/ha) was 100%, the “Activity [%] (efficacy)” value (Phytophthora infestans) was 100% and the “Activity [%] (efficacy)” value (Botrytis cinerea; application rate 1200 g/ha) was 98%. For the same compound, the “Activity [%] (efficacy)” value (Sphaerotheca fuliginea; application rate 1200 g/ha) was 99%.

With CCn1cc(CNC(=O)C2(CC)CC(c3cc(Cl)cc(Cl)c3)=NO2)cn1 (centres unmarked) [Example 2.136] the “Activity [%] (efficacy)” value (Peronospora parasitica; application rate 1200 g/ha) was 100%, the “Activity [%] (efficacy)” value (Phytophthora infestans) was 90% and the “Activity [%] (efficacy)” value ([1]; application rate 1200 g/ha) was 88%.

For CCn1cc(CNC(=O)C2(C3CC3)CC(c3cc(Cl)cc(Cl)c3)=NO2)c(C)n1 (centres unmarked) [Example 5.018], the “Activity [%] (efficacy)” value (Peronospora parasitica; application rate 500 g/ha) was 100%, the “Activity [%] (efficacy)” value (Phytophthora infestans) was 75% and the “Activity [%] (efficacy)” value ([1]; application rate 1200 g/ha) was 88%.

In the case of COCCCCNC(=O)C1(C)CC(c2cc(Cl)cc(Cl)c2)=NO1 (centres unmarked) [Example 6.006], the “Activity [%] (efficacy)” value (Peronospora parasitica; application rate 1200 g/ha) was 100%, the “Activity [%] (efficacy)” value (Phytophthora infestans) was 70% and the “Activity [%] (efficacy)” value (Leptosphaeria nodorum) was 100%.

CC(C)(C)NC(=O)C1(C)CC(c2cc(Cl)cc(Cl)c2)=NO1 (centres unmarked) [Example 6.117, N-tert-butyl-3-(3,5-dichlorophenyl)-5-methyl-4,5-dihydro-1,2-oxazole-5-carboxamide] was tested, and the “Activity [%] (efficacy)” value (Peronospora parasitica; application rate 500 g/ha) was 92%, the “Activity [%] (efficacy)” value (Alternaria brassicae) was 73% and the “Activity [%] (efficacy)” value ([1]; application rate 500 g/ha) was 91%.

CC(C)NC(=O)C1(C)CC(c2cc(Cl)cc(Cl)c2)=NO1 (centres unmarked) [Example 6.165] was tested, and the “Activity [%] (efficacy)” value (Peronospora parasitica; application rate 500 g/ha) was 95%, the “Activity [%] (efficacy)” value (Botrytis cinerea; application rate 500 g/ha) was 93% and the “Activity [%] (efficacy)” value (Alternaria brassicae) was 95%. The “Activity [%] (efficacy)” value ([1]; application rate 500 g/ha) was 100%.

CC(C)NC(=O)C1(C)CC(c2cccc(N)c2)=NO1 (centres unmarked) [Example 6.183] was tested, and the “Activity [%] (efficacy)” value (Sphaerotheca fuliginea; application rate 500 g/ha) was 98%.

For CC(C)NC(=O)C1(C)CC(c2cc(Cl)cc(C(F)(F)F)c2)=NO1 (centres unmarked) [Example 6.188], the “Activity [%] (efficacy)” value (Botrytis cinerea; application rate 500 g/ha) was 86%, the “Activity [%] (efficacy)” value (Alternaria brassicae) was 73% and the “Activity [%] (efficacy)” value ([1]; application rate 500 g/ha) was 100%.

In the case of CC(C)NC(=O)C1(C)CC(c2cc(Cl)cc(OCC(F)(F)F)c2)=NO1 (centres unmarked) [Example 6.193], the “Activity [%] (efficacy)” value (Sphaerotheca fuliginea; application rate 500 g/ha) was 85% and the “Activity [%] (efficacy)” value ([1]; application rate 500 g/ha) was 95%.

For CC1(C(=O)NCC2CC2)CC(c2cc(Cl)cc(Cl)c2)=NO1 (centres unmarked) [Example 6.431], the “Activity [%] (efficacy)” value (Peronospora parasitica; application rate 500 g/ha) was 71%, the “Activity [%] (efficacy)” value (Alternaria brassicae) was 77% and the “Activity [%] (efficacy)” value ([1]; application rate 500 g/ha) was 100%.
